Structures can show the parent of a compound that is named as a salt.
Tests used:
[1] = system: mouse neuropathic pain model; test: Analgesic activity in mouse neuropathic pain model (von Frey filament test); assay type: in vivo; details: for pain threshold of diseased limb (von Frey filament test): oral administration of 30 mg/kg, neuropathic pain model mice, versus vehicle administration group; for analgesic activity: oral administration, mouse neuropathic pain model (FIG. 1)
Protocol: Mouse neuropathic pain model was prepared according to the method of Tozaki-Saitoh H. et al. (Tozaki-Saitoh H., Tsuda M., Miyata H., Ueda K., Kohsaka S. and Inoue K.; P2Y12 Receptors in Spinal Microglia Are Required for Neuropathic Pain after Peripheral Nerve Injury. Neuroscience, 28(19): 4949-4956 (2008)). Under isoflurane anesthesia, back hair of mice was extensively shaved, the shaved parts were wiped with rubbing alcohol, and the mice were fixed in the prone position on a heating pad. The skins were cut and opened along the dorsal median line on the upper and lower sides of the head end of the sacroiliac bone in a length of about 1 cm each, with confirming the head end of the bone with fingers. The left lateral paravertebral muscle was separated in the sacral region, and then the ligament was separated. The sacroiliae rim and the upper part thereof were cut and opened along the pyramid, and the transverse process of the first sacral vertebra (S1) was confirmed. The transverse process of S1 was removed, the fourth lumber nerve (L4) running just under the transverse process was confirmed and cut, and the operative wound was sutured.
The pain threshold (paw withdrawal threshold (g)) was measured by stimulating the soles of mice with each of seven von Frey filaments (Stoelting Co., TOUCH-TEST SENSORY EVALUATOR) that gave different stimulation strengths, and determining presence or absence of withdrawal response. The 50% threshold was calculated according to the up down method with reference to the method of Chaplan et al. (Chaplan S R, Bach F W, Pogrel J W, Chung J M, Yaksh T L: Quantitative assessment of tactile allodynia in the rat paw, J. Neurosci. Method, 53:55-63 (1994)).
For evaluation of efficacy, each of the compounds described in Examples 21 and 42 was orally administered to the neuropathic pain model mice with a sonde for oral administration in mice, and effect thereof on the pain threshold measured in the von Frey filament test was observed.

human P2X4 receptor = human P2X4 receptor (Homo sapiens (Human), UniProt Q99571); test: P2X4 receptor antagonist activity (ATP-induced intracellular calcium, Fura-2 AM); assay type: cell-based; details: 1321N1 cells stably expressing human P2X4 receptor; test substance 15 minutes before addition of ATP; Fura-2 AM F340/F380; read-out: Inhibitory activity IC50
Sequence of human P2X4 receptor (Q99571 whole entry): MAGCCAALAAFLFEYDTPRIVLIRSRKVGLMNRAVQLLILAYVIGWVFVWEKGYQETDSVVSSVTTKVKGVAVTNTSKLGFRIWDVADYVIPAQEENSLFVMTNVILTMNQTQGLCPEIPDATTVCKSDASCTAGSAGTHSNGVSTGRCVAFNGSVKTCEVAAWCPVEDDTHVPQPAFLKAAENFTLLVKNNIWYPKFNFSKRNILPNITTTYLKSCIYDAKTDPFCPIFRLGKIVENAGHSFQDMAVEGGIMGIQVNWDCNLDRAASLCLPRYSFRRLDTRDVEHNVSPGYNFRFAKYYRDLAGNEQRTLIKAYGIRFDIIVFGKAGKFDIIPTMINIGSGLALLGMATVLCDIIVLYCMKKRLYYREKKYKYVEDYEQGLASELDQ
Protocol: The ATP receptor (human P2X4) was introduced into the 1321N1 cells, and the cells were used as a stable ATP receptor expression system. The P2X4-expressing 1321N1 cells were seeded on a 96-well plate, cultured under the conditions of 37° C. and 5% CO2 for 24 hours, and used for calcium measurement. […] For the measurement, a microplate reader, Fluostar Optima (BMG Labtech), was used. The light emitted from a xenon lamp was passed through 340 nm and 380 nm filters, respectively, and irradiated on the cells, fluorescences of 510 nm, F340 and F380, emitted from the cells were measured, and change of the ratio F340/F380 was used as an index of change of intracellular calcium level. The measurement was performed by adding ATP to each well at a final concentration of 1 μM, and observing the ATP-induced Ca^2+ response over time.
The 1321N1 cells stably expressing human P2X4 receptor were seeded on a 96-well plate, cultured under the conditions of 37° C. and 5% CO2 for 24 hours, and then used for intracellular calcium measurement. Fura-2 AM, which is a calcium fluorescent indicator, was used for the intracellular calcium measurement. […] The ratio of fluorescence values obtained with excitation lights of 340 nm and 380 nm was used as an index of the change of intracellular calcium level, and the inhibitory activity of the test substance was calculated on the basis of the comparison with the value obtained in the absence of the test substance (control).

| Compound | pain threshold of diseased limb (von Frey filament test) [1] | analgesic activity [1] | IC50 (human P2X4 receptor) |
| --- | --- | --- | --- |
| Cl.O=C1CC(=O)N(c2ccc(-n3ccnc3CCc3ccccc3)cc2)c2ccc3ccccc3c2N1 [Example 21, 5-[4-(2-Phenethyl-1H-imidazol-1-yl)phenyl]-1H-naphtho[1,2-b][1,4]diazepine-2,4(3H,5H)-dione hydrochloride] | increased the pain threshold of diseased limb | superior analgesic activity | 78 nM |
| COc1cccc(CCc2nccn2-c2ccc(N3C(=O)CC(=O)Nc4c3ccc3ccccc43)cc2)c1.Cl [Example 42, 5-[4-[2-(3-Methoxyphenethyl)-1H-imidazol-1-yl]phenyl]-1H-naphtho[1,2-b][1,4]diazepine-2,4(3H,5H)-dione hydrochloride] | increased the pain threshold of diseased limb | superior analgesic activity | 92 nM |
| NC(=O)c1cccc(CCc2nccn2-c2ccc(N3C(=O)CC(=O)Nc4c3ccc3ccccc43)cc2)c1 [Example 57, 3-[2-[1-[4-(2,4-Dioxo-3,4-dihydro-1H-naphtho[1,2-b][1,4]diazepin-5(2H)-yl)phenyl]-1H-imidazol-2-yl]ethyl]benzamide] | – | – | 130 nM |
| COc1cccc(CCc2nccn2-c2ccc(N3C(=O)CC(=O)Nc4c3ccc3c4CCC3)cc2)c1 [Example 61, 5-[4-[2-(3-Methoxyphenethyl)-1H-imidazol-1-yl]phenyl]-5,8,9,10-tetrahydroindeno[4,5-b][1,4]diazepine-2,4(1H,3H)-dione hydrochloride] | – | – | 74 nM |
| O=C1CC(=O)N(c2ccc(-n3ccnc3CCc3ccsc3)cc2)c2ccc3ccccc3c2N1 [Example 62, 5-[4-[2-[2-(Thiophen-3-yl)ethyl]-1H-imidazol-1-yl]phenyl]-1H-naphtho[1,2-b][1,4]diazepine-2,4(3H,5H)-dione hydrochloride] | – | – | 88 nM |
| COc1cc(N2C(=O)CC(=O)Nc3c2ccc2ccccc32)ccc1-c1nccn1CCc1ccccc1 [Example 64, 5-[3-Methoxy-4-(1-phenethyl-1H-imidazol-2-yl)-phenyl]-1H-naphtho[1,2-b][1,4]diazepine-2,4(3H,5H)-dione] | – | – | 520 nM |
| O=C1CC(=O)N(c2ccc(-c3nccn3CCc3ccccc3)c(O)c2)c2ccc3ccccc3c2N1 [Example 65, 5-[3-Hydroxy-4-(1-phenethyl-1H-imidazol-2-yl)-phenyl]-1H-naphtho[1,2-b][1,4]diazepine-2,4(3H,5H)-dione] | – | – | 130 nM |
| O=C1CC(=O)N(c2ccc(-n3ccnc3CCc3ccco3)cc2)c2ccc3ccccc3c2N1 [Example 66, 5-[4-[2-[2-(Furan-2-yl)ethyl]-H-imidazol-1-yl]-phenyl]-1H-naphtho[1,2-b][1,4]diazepine-2,4(3H,5H)-dione hydrochloride] | – | – | 550 nM |
| O=C1CC(=O)N(c2ccc(-n3ccnc3CCc3ccccc3F)cc2)c2ccc3c(c2N1)CCC3 [Example 67, 5-[4-[2-(2-Fluorophenethyl)-1H-imidazol-1-yl]phenyl]-5,8,9,10-tetrahydroindeno[4,5-b][1,4]diazepine-2,4(1H,3H)-dione] | – | – | 53 nM |
| O=C1CC(=O)N(c2ccc(-n3ccnc3COc3ccccc3)cc2)c2ccc3ccccc3c2N1 [Example 68, 5-[4-[2-(Phenoxymethyl)-1H-imidazol-1-yl]phenyl]-1H-naphtho[1,2-b][1,4]diazepine-2,4(3H,5H)-dione] | – | – | 790 nM |
| CC(C)(Cc1nnnn1-c1ccc(N2C(=O)CC(=O)Nc3c2ccc2ccccc32)cc1)c1ccccn1 [Example 69, 5-[4-[5-[2-Methyl-2-(pyridin-2-yl)propyl]-1H-tetrazol-1-yl]phenyl]-1H-naphtho[1,2-b][1,4]diazepine-2,4(3H,5H)-dione hydrochloride] | – | – | 5400 nM |
| O=C1CC(=O)N(c2ccc(-n3ccnc3CCc3ccccn3)cc2)c2ccc3ccccc3c2N1 [Example 71, 5-[4-[[2-(Pyridin-2-yl)ethyl]-1H-imidazol-1-yl]phenyl]-1H-naphtho[1,2-b][1,4]diazepine-2,4(3H,5H)-dione dihydrochloride] | – | – | 590 nM |
| O=C1CC(=O)N(c2ccc(-c3nc[nH]c3-c3ccccc3)cc2)c2ccc3ccccc3c2N1 [Example 72, 5-[4-(5-Phenyl-1H-imidazol-4-yl)phenyl]-1H-naphtho[1,2-b][1,4]diazepine-2,4(3H,5H)-dione hydrochloride] | – | – | 3400 nM |
| CC1(C)CN(c2ccc(N3C(=O)CC(=O)Nc4c3ccc3ccccc43)cc2)C(CCc2ccccc2)=N1 [Example 74, 5-[4-(4,4-Dimethyl-2-phenethyl-4,5-dihydro 1H-imidazol-1-yl)phenyl]-1H-naphtho[1,2-b][1,4]diazepine-2,4(3H,5H)-dione hydrochloride] | – | – | 2500 nM |
| O=C1CC(=O)N(c2ccc(-n3ccnc3CCc3cccc(F)c3)cc2)c2ccc3c(c2N1)CCC3 [Example 79, 5-[4-[2-(3-Fluorophenethyl)-1H-imidazol-1-yl]phenyl]-5,8,9,10-tetrahydroindeno[4,5-b][1,4]diazepine-2,4(1H,3H)-dione hydrochloride] | – | – | 39 nM |
| O=C1CC(=O)N(c2ccc(-n3ccnc3CNc3ccccc3)cc2)c2ccc3ccccc3c2N1 [Example 80, 5-[4-[2-[(Phenylamino)methyl]-1H-imidazol-1-yl]phenyl]-1H-naphtho[1,2-b][1,4]diazepine-2,4(3H,5H)-dione] | – | – | 1300 nM |
| COc1c(F)cccc1CCc1nccn1-c1ccc(N2C(=O)CC(=O)Nc3c2ccc2ccccc32)cc1 [Example 83, 5-[4-[(2-(3-Fluoro-2-methoxyphenyl)ethyl)-1H-imidazol-1-yl]phenyl]-1H-naphtho[1,2-b][1,4]diazepine-2,4(3H,5H)-dione hydrochloride] | – | – | 87 nM |
